The subject of data set [1] is FER cytoplasmic domain (FER‐CD). Briefly: FER-CD kinase activity (autophosphorylation), high-throughput screening, Kinase-Lumi luminescent ATP consumption. The following applies: in vitro autophosphorylation. The data set is classed as biochemical, Arabidopsis thaliana.
Data set [2] deals with HERK1‐CD. Briefly: HERK1-CD kinase activity (autophosphorylation). The data set is classed as biochemical, Arabidopsis thaliana. The following applies: 5 μM.
Data set [3] has as its system ANJEA‐CD. Briefly: ANJEA-CD kinase activity (autophosphorylation). The data set is classed as biochemical, Arabidopsis thaliana. The conditions noted are these: 5 μM.
Data set [4] has as its system Ralstonia solanacearum. The data set is classed as in vivo, tobacco. The conditions noted are these: roots pretreated twice with 3 mL of 5 μM.
Data set [5] has as its system Ralstonia solanacearum. The data set is classed as in vivo, tomato. The following applies: roots pretreated twice with 3 mL of 5 μM.
The test system of data set [6] is Ralstonia solanacearum. The data set is classed as in vivo, tobacco. The conditions noted are these: 5 μM irrigated twice two days after inoculation.
The test system of data set [7] is Meloidogyne incognita. Briefly: Established rice root-knot nematode disease (inhibitor applied after inoculation). The data set is classed as in vivo. The following applies: irrigated three days after inoculation.
Data set [8] has as its system PEPR1. Briefly: PEPR1-CD kinase activity. The data set is classed as biochemical, Arabidopsis. The text has this:
(§1) Fig. S10. […] (a) Effects of FER inhibitors on the kinase activity of the Arabidopsis receptor kinase PEPR1 and CERK1 cytoplasmic domains (CDs). […] AT1G73080. […] AT3G21630. DMSO (0.05%; v/v) was used as a negative control. The data are shown as the means ± SDs (n = 4). The assay was repeated three times with similar results. ***, […]) Protein purification of PEPR1-CD and CERK1-CD. […] In (c and d), the data are presented as the means ± SDs of three biological replicates.

Data set [9] deals with CERK1. Briefly: CERK1-CD kinase activity. The data set is classed as biochemical, Arabidopsis.
Text: as §1

Data set [10] deals with PER5. The conditions noted are these: 5 μM for 24 h, confocal microscopy.
The target of data set [11] is EGFR‐associated tyrosine kinase. Also noted: method as in Hsu et al., [1991]. The following applies: ref Hsu et al., [1991]; cited from earlier work.
In data set [12] the test system is tobacco. Briefly: Growth of tobacco (shoot and root fresh weight, Day 25). The following applies: 5 μM irrigated twice.
Data set [13] relates to Arabidopsis Col‐0 and fer‐4 seedlings. Briefly: Growth of Arabidopsis seedlings (root length, shoot fresh weight). The conditions noted are these: 5 μM for 3 days, vs ddH2O (mock) and lapatinib.
For data set [14], the system named is Aurora A. The following applies: read-out: IC50 for Aurora A; ref D'Alise et al., [2008]; cited from earlier work.
Data set [15] deals with Aurora B. The conditions noted are these: read-out: IC50 for Aurora B; ref D'Alise et al., [2008]; cited from earlier work.
Data set [16] has as its system Aurora C. The conditions noted are these: read-out: IC50 for Aurora C; ref D'Alise et al., [2008]; cited from earlier work.

SMILES strings stand for the structures. Entries after “also recorded” stand apart in the source; their conditions may differ.

For `O=C(O)c1cc(N(Cc2ccccc2O)Cc2cc(O)ccc2O)ccc1O` [Lavendustin A], the “Effect on FER kinase activity” value in data set [1] is recorded as “inhibited the kinase activity of FER”. Besides, in [2], the “Inhibition rate of HERK1-CD kinase activity” value is “lower than 55%”. Further, in data set [3], the “Inhibition rate of ANJEA-CD kinase activity” value is listed as “lower than 55%”. The “Control of tobacco bacterial wilt” value in data set [4] is “alleviated tobacco bacterial wilt; also recorded: alleviated soil‐borne diseases”. In data set [5], the “Control of tomato bacterial wilt” value is reported as “best control effect; also recorded: alleviated soil‐borne diseases”. Further, the “Effect on established tobacco bacterial wilt” value in data set [6] was “could not completely prevent the occurrence of the diseases or cure already diseased plants”. The “Effect on established rice root-knot nematode disease” value in [7] was “could not completely prevent the occurrence of the diseases or cure already diseased plants”. Also, the “Effect on PEPR1 kinase activity” value in data set [8] was “did not affect the kinase activity”. Further, the “Effect on CERK1 kinase activity” value in data set [9] is given as “did not affect the kinase activity”. Also, the “Expression of PER5 in roots” value in [10] is on record as “did not affect the expression levels”. Also, the “IC50 for EGFR-associated tyrosine kinase” value in data set [11] is “Lavendustin A (RG‐14355), isolated from Streptomyces Griseolavendus, is a potent, specific and ATP‐competitive inhibitor of tyrosine kinase, with an IC50 of 11 ng/mL for EGFR‐associated tyrosine kinase (Hsu et al., [1991])”. For the same molecule, the “Growth (biomass) of tobacco shoots and roots” value in data set [12] was “significantly improved the growth of tobacco shoots and roots”. The “Growth of roots and shoots of Arabidopsis Col-0 seedlings” value in [13] was “significantly promoted root and shoot growth”.

For `c1nc2nc(Nc3ccc(N4CCOCC4)cc3)nc(NC3CCCCC3)c2[nH]1` [Reversine], the “Effect on FER kinase activity” value in data set [1] was “inhibited the kinase activity of FER”. Further, in [2], the “Inhibition rate of HERK1-CD kinase activity” value is on record as “lower than 55%”. In addition, in data set [3], the “Inhibition rate of ANJEA-CD kinase activity” value is recorded as “lower than 55%”. The “Control of tobacco bacterial wilt” value in data set [4] was “alleviated tobacco bacterial wilt; also recorded: alleviated soil‐borne diseases”. In addition, the “Control of tomato bacterial wilt” value in data set [5] is given as “alleviated soil‐borne diseases”. Also, in data set [6], the “Effect on established tobacco bacterial wilt” value is listed as “could not completely prevent the occurrence of the diseases or cure already diseased plants”. Also, in [7], the “Effect on established rice root-knot nematode disease” value is recorded as “could not completely prevent the occurrence of the diseases or cure already diseased plants”. In addition, the “Effect on PEPR1 kinase activity” value in data set [8] is “did not affect the kinase activity”. Moreover, in data set [9], the “Effect on CERK1 kinase activity” value was “did not affect the kinase activity”. Besides, the “Expression of PER5 in roots” value in data set [10] was “did not affect the expression levels”. For the same molecule, the IC50 in [14] is […]; in data set [15], […]; in data set [16], […]. Further, the “Growth (biomass) of tobacco shoots and roots” value in data set [12] was “did not observably affect the biomass”. In addition, the “Growth of roots and shoots of Arabidopsis Col-0 seedlings” value in data set [13] is “did not affect the growth of roots and shoots”.
